Reference: patent US20040152784A1, “Pharmaceutical composition and method for treatment of a urea cycle deficiency or sickle-cell anaemia” (Special Products Limited, priority 2002, published 2004)
Values after ≈ are worked out from the molar mass of the structure shown. “Also recorded” adds a separate entry of the source. Where two headings read alike, the source gives them in different places. Residues, ends and D or L forms follow the SMILES beside them.

How the values were obtained:
[1] = cited from earlier work
[2] = cited from earlier work; for Stability / hydrolysis in water: in words
[3] = Bulk density and powder properties; format: physicochemical
Procedure: A pharmaceutical composition made by either of such methods typically has a bulk density of about 52.6 g/100 ml. […] A 25 g quantity of the granulated pharmaceutical composition will thus approximately half fill a 100 ml bottle.

[4] = tested on: bacterial and fungal growth; test: Prevention of bacterial and fungal growth in the concentrated flavored solution without preservative; format: cell-based; settings: 250 mg/ml, no preservative
Text: This may not apply at much lower concentrations. Therefore, the concentrated solution should be diluted by the patient's carer or guardian immediately before it is consumed by the patient. Thus the patient's carer or guardian should not prepare a jug of ready-to-use liquid to last a week or so.

Solubility in water = format: physicochemical; settings: in water at 10° C.; read-out: maximum solubility of sodium 4-phenylbutyrate

COC(=O)[C@H](Cc1ccccc1)NC(=O)[C@@H](N)CC(=O)O [Aspartame] (H-Asp-Phe-OMe)
solubility [1]: 10 mg/mL (≈ 34 mM)
hydrolyses significantly to phenylalanine (non-sweet) within ([2]; in water): ≤ 6 months
Stability / hydrolysis in water [2]: hydrolyses to phenylalanine within a few weeks; also recorded: Hydrolyses in water

OC[C@@H](O)[C@@H](O[C@H]1O[C@H](CO)[C@@H](O)[C@H](O)[C@H]1O)[C@H](O)[C@@H](O)CO [Maltitol]
Solubility in Water ([1]; in words): Very soluble

CC1=CC(=O)NS(=O)(=O)O1 [Potassium acesulfame]
Dissolution ([1]; in words): Fast dissolution
Solubility in Water ([1]; in words): Very soluble
Stability / hydrolysis in water [2]: Stable in water

O=C([O-])CCCc1ccccc1.[Na+] [Sodium 4-phenylbutyrate]
bulk density [3]: about 26.4 g/100 ml
hygroscopicity [3]: somewhat hygroscopic
prevention of bacterial and fungal growth [4]: prevents such growth
solubility (Solubility in water): 250 mg/mL

O=C1NS(=O)(=O)c2ccccc21.[Na] [Sodium Saccharine]
Solubility in Water ([1]; in words): Very soluble

O=S(=O)([O-])NC1CCCCC1.[Na+] [Sodium cyclamate]
Solubility in Water ([1]; in words): Soluble
